Measurements from patent publication US20130217672A1, “(+)-3-HYDROXYMORPHINAN-BASED POLYCYCLE DERIVATIVES” (GREEN CROSS CORPORATION, priority 2010, published 2013).
Where a name gives a salt, the structure may show the parent alone.

Experiments:
[1] = tested on: HT22 cells (mouse hippocampal neuron); experiment: Cell cytotoxicity test: HT22 cells co-treated with 5 mM glutamate and compound, MTT readout; assay type: cell-based; conditions: Mus musculus, HT-22, five millimolar glutamate co-treated, 24 h, read-out: EC50: neuroprotective effect against glutamate toxicity
Method: (§1) HT22 cells (mouse hippocampal neuron, Salk Institute and KRIBB) were placed in a 96-well plate 3×10^3 cells/well for 16 h before treatment. Five millimolar glutamate and the inventive compounds were co-treated and incubated for 24 h in growth media (DMEM with 10% FBS and 1% penicillin streptomycin). MTT (3-(4,5-dimethylthazol-2-yl)-2,5-diphenyltetrazolium bromide, Sigma®) was treated for 4 h and detected with a plate reader at a wavelength=450 nm [Da-Qing, et. al., Anti-oxidant and anti-inflammatory activities of macelignan in murine hippocampal cell line and primary culture of rat microglia cells, BBRC, 2005, 331, 1264-1269].
(§2) The EC50 values were statistically analyzed using Prism® (GraphPad Software Inc., San Diego, Calif.). The results of the cell cytotoxicity test are summarized in Table 1 (EC50: neuroprotective effect against glutamate toxicity, and CC50: cytotoxicity of compound).

[2] = as above; assay type: cell-based, mouse; conditions: mouse, HT22 cells (mouse hippocampal neuron)
Method: as §1, §2

[3] = tested on: dopamine (DA) neurons in substantia nigra pars compacta; conditions: MPTP model, daily injections; cited from earlier work

Compound | EC50 [1] | CC50 at 24 h [2] | DA levels in striatum [3] | DA neurons in substantia nigra pars compacta [3]
Oc1cccc2c1[nH]c1c(O)cc3c(c12)C[C@@H]1NCC[C@]32CCCC[C@H]12 [Example 11, (4aS,13S,13aS)-1,2,3,4,7,12,13,13a-Octahydro-13,4a-(epiminoethano)naphtho[1,2-c]carbazole-6,8-diol TFA salt] | 0.303 µM | 44 µM |  | 
Oc1cc2c(c3nccnc13)C[C@@H]1NCC[C@]23CCCC[C@H]13 [Example 9, (6S,6aS,10aS)-6,6a,7,8,9,10-Hexahydro-5H-6,10a-(epiminoethano)naphtho[2,1-f]quinoxalin-12-ol TFA salt] | 16.3 µM | 44.8 µM |  | 
Oc1cc2c(c3c1NC(c1ccccc1)CO3)C[C@@H]1NCC[C@]23CCCC[C@H]13 (stereo partly drawn) [Example 8, (6S,6aS,10aS)-2-Phenyl-1,2,3,5,6,6a,7,8,9,10-decahydro-6,10a-(epiminoethano)phenanthro[1,2-b][1,4]oxazin-12-ol TFA salt] | 0.457 µM | 8.1 µM |  | 
Oc1cc2c(c3c1[nH]c1ccccc13)C[C@@H]1NCC[C@]23CCCC[C@H]13 [Example 12, (4aS,13S,13aS)-1,2,3,4,7,12,13,13a-Octahydro-13,4a-(epiminoethano)naphtho[1,2-c]carbazol-6-ol TFA salt] | 0.71 µM | 49.8 µM |  | 
Oc1ccc2c(c1)[C@@]13CCCC[C@H]1[C@@H](C2)NCC3 [(+)-3-HM, (+)-3-hydroxymorphinan] |  |  | restored | protected
Cc1ccc2[nH]c3c(O)cc4c(c3c2c1)C[C@@H]1NCC[C@]42CCCC[C@H]12 [Example 14, (4aS,13S,13aS)-10-Methyl-1,2,3,4,7,12,13,13a-octahydro-13,4a-(epiminoethano)naphtho[1,2-c]carbazol-6-ol TFA salt] | 0.908 µM | 5.7 µM |  | 
Oc1cc2c(c3c1OCCN3)C[C@@H]1NCC[C@]23CCCC[C@H]13 [Example 1, (6S,6aS,10aS)-2,3,4,5,6,6a,7,8,9,10-Decahydro-6,10a-(epiminoethano)phenanthro[2,1-b][1,4]oxazin-12-ol TFA salt] | 26.9 µM | > 100 µM |  | 
Oc1cc2c(c3c1NCCO3)C[C@@H]1NCC[C@]23CCCC[C@H]13 [Example 7, (6S,6aS,10aS)-1,2,3,5,6,6a,7,8,9,10-Decahydro-6,10a-(epiminoethano)phenanthro[1,2-b][1,4]oxazin-12-ol TFA salt] | 0.65 µM | 13.5 µM |  | 
Oc1cc2c(c3c1OCCO3)C[C@@H]1NCC[C@]23CCCC[C@H]13 [Example 5, (6S,6aS,10aS)-3,5,6,6a,7,8,9,10-Octahydro-2H-6,10a-(epiminoethano)phenanthro[1,2-b][1,4]dioxin-12-ol TFA salt] | 4.97 µM | > 100 µM |  | 
CC(=O)N1CCOc2c(O)cc3c(c21)C[C@@H]1NCC[C@]32CCCC[C@H]12 [Example 3, 1-((6S,6aS,10aS)-12-Hydroxy-2,3,6,6a,7,8,9,10-octahydro-6,10a-(epiminoethano)phenanthro[2,1-b][1,4]oxazin-4(5H)-yl)ethanone TFA salt] | 8.5 µM | > 100 µM |  | 
Oc1cc2c(c3nc4ccccc4nc13)C[C@@H]1NCC[C@]23CCCC[C@H]13 [Example 10, (4aS,14S,14aS)-2,3,4,13,14,14a-Hexahydro-1H-14,4a-(epiminoethano)naphtho[2,1-a]phenazin-6-ol TFA salt] | 0.354 µM | 10.7 µM |  | 
Oc1ccc2[nH]c3c(O)cc4c(c3c2c1)C[C@@H]1NCC[C@]42CCCC[C@H]12 [Example 13, (4aS,13S,13aS)-1,2,3,4,7,12,13,13a-Octahydro-13,4a-(epiminoethano)naphtho[1,2-c]carbazole-6,10-diol TFA salt] | 1.11 µM | > 100 µM |  | 
CN1CCOc2c(O)cc3c(c21)C[C@@H]1NCC[C@]32CCCC[C@H]12 [Example 4, (6S,6aS,10aS)-4-Methyl-2,3,4,5,6,6a,7,8,9,10-decahydro-6,10a-(epiminoethano)phenanthro[2,1-b][1,4]oxazin-12-ol TFA salt] | 9.6 µM | > 100 µM |  | 
Oc1cc2c(c3c1OCCCN3)C[C@@H]1NCC[C@]23CCCC[C@H]13 [Example 2, (7S,7aS,11aS)-3,4,5,6,7,7a,8,9,10,11-Decahydro-2H-7,11a-(epiminoethano)phenanthro[2,1-b][1,4]oxazepin-13-ol TFA salt] | 27.7 µM | > 100 µM |  | 
CC1COc2c3c(cc(O)c2N1)[C@]12CCCC[C@@H]1[C@H](C3)NCC2 (stereo partly drawn) [Example 6, (6S,6aS,10aS)-2-Methyl-1,2,3,5,6,6a,7,8,9,10-decahydro-6,10a-(epiminoethano)phenanthro[1,2-b][1,4]oxazin-12-ol TFA salt] | 0.314 µM | > 100 µM |  | 
